Residues, ends and D or L forms follow the SMILES beside them. *: point of attachment. Boc = CC(C)(C)OC(=O)*; Bn = c1ccc(C*)cc1
In the case of `CCCCCCCCCCCCCCCCN(CC(O)CO)C(C)=O` (centres undefined), the melting point is reported as 56 to 58 °C.
Work on `c1csc(Nc2ccnc3cn[nH]c23)c1` yielded a melting point of 255 to 259 °C.
In the case of `COc1ccc2c(c1)C(=O)C(Cc1ccccc1)CS2` (centres undefined), the melting point is reported as 66 to 68 °C.
Work on `COc1ccc(CCc2ccc(-c3ccc(OC(F)F)cc3)cc2)cc1` yielded a melting point of 153 °C.
`Cc1oc2cc(NS(C)(=O)=O)c(Oc3ccccc3)cc2c(=O)c1C(=O)O` showed a melting point of 238 to 241 °C.
Compound `CC(C)c1ccc2c(c1)c(-c1ccccc1Cl)c(NC(=O)Nc1ccc(F)cc1F)c(=O)n2C` has a melting point of 152 to 156 °C.
With `NCC(=O)N(Nc1nncc(-c2ccccc2)n1)C(=O)OCc1ccccc1` the melting point was 166 to 167 °C.
`CCOc1nc2cccc(C(=O)OC)c2n1Cc1ccc(-c2ccccc2-c2nc(=O)s[nH]2)cc1` showed a melting point of 211 to 212 °C.
`CNC(=O)ON=C1SCCN(C(=O)NC)C1=O` showed a melting point of 187 to 189 °C.
Work on `C=CC(=O)NC(=O)NC(=O)CCl` yielded a melting point of 144 to 145 °C.
`Cc1cccc(-c2coc3c(O)c(O)ccc3c2=O)c1` gave a melting point of 268 °C.
With `Cc1nnsc1C(=O)NS(C)(=O)=O` the melting point was 187 °C.
With `CC(C)S(=O)(=O)c1cc(OCCc2ccccn2)c2[nH]nc(Nc3cnccn3)c2c1` the melting point was 195 to 196 °C.
Work on `CC(=O)CN1CCc2ccc(C(=O)CCC(=O)N3CCC(c4ccc(Cl)cc4)CC3)cc2CC1` yielded a melting point of 119 to 120 °C.
Compound `CC1CC(=O)c2ccc(C(C)C(=O)O)cc2C1` (centres undefined) has a melting point of 196 to 199 °C.
Work on `N#Cc1c(N)c2ccccc2[nH]c1=O` yielded a melting point of over 250 °C.
`COc1cc(C(=O)Oc2cc(Cl)c(Cl)cc2Cl)ccc1Cc1cn(C)c2ccc([N+](=O)[O-])cc12` showed a melting point of 134 to 136 °C.
Work on `CC(C)Cc1cc2cc(OCC(=O)O)c(Cl)c(Cl)c2s1` yielded a melting point of 164 to 165 °C.
`CN1C[C@H]2c3ccccc3CC[C@H]2CCC1=O` (relative stereo) gave a melting point of 130 to 131 °C.
Compound `O=C(/C=C/C=C(c1ccccc1C(F)(F)F)c1ccccc1C(F)(F)F)NCCCCc1cccnc1` has a melting point of 110 to 112 °C.
`CC#Cc1cc(=O)n2nc(SCCCCCC)sc2n1` showed a melting point of 94 to 97 °C.
For `Ic1ccc2c(c1)ncn2-c1cccc(-c2ccccn2)c1`, the melting point was 157 to 158 °C.
`COc1cc(C(N)=O)ccc1OCCCN1CCC(c2noc3cc(F)ccc23)CC1` showed a melting point of 163 to 164 °C.
Work on `COc1cc2c(cc1Cl)C(Cl)(c1ccccc1Cl)C(=O)N2` (centres undefined) yielded a melting point of 237 to 240 °C.
Compound `CCN1CCN(C(=O)NC(C(=O)O)c2cc(OC(C)=O)c(OC(C)=O)cc2F)C(=O)C1=O` (centres undefined) has a melting point of 177 to 179 °C.
In the case of `CC(C)(C)c1ccc2c(c1)CCC1=C2CCC(=O)N1`, the melting point is reported as 265 to 268 °C.
In the case of `N#CCCCCCCNc1ccc(O)cc1`, the melting point is reported as 75 to 76 °C.
Work on `C=CCOc1ccc(-c2cc3[nH]c4c(c(=O)n3n2)CN(C2CCCCC2)C4=O)cc1` yielded a melting point of over 320 °C.
For `Clc1ccc2c(c1)CNc1cc(Cl)ccc1O2`, the melting point was 103 to 105 °C.
`CCCOc1ccc(S(=O)(=O)N2CCN(CC)CC2)cc1C(=O)O` showed a melting point of 143 to 145 °C.
`COc1ccc(C(=O)O)cc1C(=O)NCc1ccc(C(F)(F)F)cc1` showed a melting point of 236 °C.
Compound `CC(C)(C)[Si](C)(C)Oc1ccc2c(c1)oc(=O)c1c3ccc(O[Si](C)(C)C(C)(C)C)cc3sc21` has a melting point of 142 to 144 °C.
`CC(C)C1CC(=O)C(C(=O)Nc2ccc(Cl)c(Cl)c2)C(=O)C1` (centres undefined) gave a melting point of 138 °C.
Compound `NC(=O)CCc1cc(C(=O)O)cc(S(N)(=O)=O)c1Oc1ccccc1` has a melting point of 192 to 196 °C.
With `Cc1[nH]c2ccc(/C=C/C(=O)OCc3ccccc3)cc2c1CN(C)C` the melting point was 174 to 177 °C.
`O=C1CNC(=S)N1c1ccc2nc(S)sc2c1` showed a melting point of over 266 °C.
In the case of `CCN(C)C(N)=C(C#N)C#N`, the melting point is reported as 140 to 141 °C.
With `CCN(CC)C(=O)N1CCc2cc(S(=O)(=O)N3C(=O)C(NCCC4CCN(C(=O)OC(C)(C)C)CC4)(c4ccccc4Cl)c4cc(Cl)ccc43)ccc21` (centres undefined) the melting point was 139 °C.
For `CCCn1nnc(NC(=O)C(c2ccccc2)c2ccccc2)n1`, the melting point was 124 to 125 °C.
`CCOC(=O)C(OCc1ccccc1)C(=O)c1cc(Cl)ccc1OCc1ccccc1` (centres undefined) gave a melting point of 64 to 65 °C.
For `COc1ccc(C(=O)Nc2ccc(C(C)(C)C#N)c(-c3cccc(Cl)c3)c2)cc1OC`, the melting point was 144 to 146 °C.
Compound `CC(n1cnc2cc(-c3ccc(C4=NCCO4)cc3)sc2c1=O)C(O)(Cn1cncn1)c1ccc(F)cc1F` (centres undefined) has a melting point of 235 to 236 °C.
For `O=c1[nH]c2cc(Cl)ccc2c(O)c1Sc1cccc(Br)c1`, the melting point was 265 to 268 °C.
`N#CCNc1cn(-c2cccnc2)nc1Cl` gave a melting point of 141 to 143 °C.
`CC(=O)OC1CSC(Oc2cc(-c3ccncc3)cnc2F)C(OC(C)=O)C1OC(C)=O` (centres undefined) gave a melting point of 143 to 144 °C.
With `N#Cc1cc2c(cc1F)OCC21C(=O)N(Cc2ncccc2C(F)(F)F)c2ccccc21` (centres undefined) the melting point was 209 to 211 °C.
`CCCCOc1ccc(N2CCN(c3cccc(C)c3)CC2)nn1` gave a melting point of 105 °C.
`Cc1ccccc1C(=O)Nc1ccc(C(=O)N2CCCC(O)c3cc(Cl)ccc32)c(C)c1` (centres undefined) showed a melting point of 224 to 226 °C.
For `CSc1ccc(/C=C2/C(C)=C(CCO)c3cc(F)ccc32)cc1`, the melting point was 101 to 103 °C.
With `CS(=O)(=O)c1ccc(-c2cnn(C=C(F)C(F)(F)C(F)(F)F)c(=O)c2-c2ccc(F)cc2)cc1` the melting point was 167 to 169 °C.
Compound `CC(NC(=O)C(Cc1ccc(OCc2ccccc2)cc1)NC(=O)OC(C)(C)C)C(=O)NCC(=O)O` (stereo not drawn) (Boc-Tyr(Bn)-Ala-Gly-OH; configuration not given here) has a melting point of 104 to 107 °C.
Work on `Clc1cc(Nc2ccc(N3CCOCC3)cc2)ncn1` yielded a melting point of 165 to 166 °C.
`Cc1nc2c(C#N)cnn2c(Cl)c1CCCl` showed a melting point of 143 to 145 °C.
Work on `Cc1c(C(F)(F)F)noc1N` yielded a melting point of 53 to 54 °C.
In the case of `Cc1ccccc1SCc1c(C(C)C)nc(C(C)C)c(CO)c1-c1ccc(F)cc1`, the melting point is reported as 140 to 141 °C.
`CC(C)Oc1cc(CCC(=O)NS(C)(=O)=O)n(Cc2ccc(Cl)cc2Cl)n1` showed a melting point of 104 to 105 °C.
For `COc1cc2oc(=O)cc(CN3CCC(OC)CC3)c2cc1OC`, the melting point was 148 to 150 °C.
In the case of `N#Cc1ccccc1N1CCN(Cc2nc3ccccc3[nH]2)CC1`, the melting point is reported as 236 to 237 °C.
For `Cc1nc2ccccn2c(=O)c1CCN1CCc2oc3ccccc3c2C1`, the melting point was 186 °C.
With `O=C(c1cccc(Br)c1)C(Br)C(Br)c1ccc(Br)cc1` (centres undefined) the melting point was 158 °C.
Compound `Cn1ncnc1COc1nn2c(-c3ccccc3F)nncc2c1-c1ccccn1` has a melting point of 186 to 187 °C.
`c1coc(-c2ccc(-c3ccco3)cc2)c1` gave a melting point of 149 to 150 °C.
Work on `CC(C)Oc1ccccc1-c1cc(=O)c2cc(C#N)ccc2o1` yielded a melting point of 172 to 175 °C.
For `CN(C)c1cccc(-n2c(=O)c(CCCc3ccncc3)cc3cccnc32)c1`, the melting point was 124 to 127 °C.
`CC(C)c1ccc(C2C(=O)Oc3ccc(Br)cc32)cc1` (centres undefined) showed a melting point of 157 to 158 °C.
Compound `Oc1ccc2c(-c3ccc4c(Br)c(O)ccc4c3)noc2c1` has a melting point of 275 to 277 °C.
Compound `N#Cc1ccc(C(=O)CC2(O)OCCO2)cc1` has a melting point of 151 to 152 °C.
`COc1ccc(NC(N)=O)c(C#N)c1OC` gave a melting point of 198 to 200 °C.
`COC1(C(=O)O)C=CC(OCc2ccccc2)=CC1` (centres undefined) showed a melting point of 172 to 173 °C.
In the case of `CNC1(C2CCCCC2)C(=O)Nc2ccc(Cl)cc21` (centres undefined), the melting point is reported as 195 to 198 °C.
With `Cn1nc(C(=O)O)c(=O)n(-c2ccc(Cl)cc2)c1=O` the melting point was 234 to 236 °C.
In the case of `CCCCCCCCOc1ccc(-c2cnc(C(=O)O)c(C(=O)O)n2)cc1`, the melting point is reported as 163 °C.
Compound `N#CNC(=O)[C@H](Cc1ccccc1)NC(=O)[C@@H]1CCC(=O)N1` has a melting point of 163 to 165 °C.
For `CC(C)N(C[C@H](O)[C@H](Cc1ccccc1)NC(=O)c1ccccc1NC(=O)OCc1ccccn1)NC(=O)OC(C)(C)C`, the melting point was 155 to 157 °C.
`Cn1c(C(F)(F)F)cc(=O)n(-c2cc(OC(=O)CCl)c(Cl)cc2F)c1=O` gave a melting point of 89 to 92 °C.
Compound `O=C(Cc1ccccn1)NC1CCC2(O)C3Cc4ccc(O)c5c4C2(CCN3CC2CC2)C1O5` (centres undefined) has a melting point of 210 to 212 °C.
Compound `CCCCCCOc1cccc(C[C@H](NC(=O)c2cccc(-c3ncco3)c2)[C@H](O)CNCc2cccc(CC)c2)c1` has a melting point of 117 to 120 °C.
`CCOC(=O)C(C)(C)n1c(=O)[nH]c2ccsc2c1=O` gave a melting point of 156 to 157 °C.
In the case of `CCCc1cccc(-c2nc(C(C)C)n(C)n2)n1`, the melting point is reported as 48.6 °C.
`CC1(c2ccccc2)C(=O)c2c(cc(O)c(Cl)c2Cl)C1c1ccccc1` (centres undefined) gave a melting point of 238 to 244 °C.
For `CN(C)NC(=O)NCCCCC1CCSS1` (centres undefined), the melting point was 60 to 61 °C.
For `C[C@@H]1C[C@](C)(O)[C@H](C)N1c1ccc(C#N)c(Cl)c1`, the melting point was 132 to 133 °C.
With `COc1cccc(CC(=O)O)c1OCCCc1cn(-c2cccc(C(F)(F)F)n2)nc1C(C)C` the melting point was 95 to 97 °C.
With `Cc1nccn1-c1nccc2[nH]c(=O)ccc12` the melting point was over 310 °C.
With `COP1(=O)C=Cc2ccccc21` (centres undefined) the melting point was 89 to 90 °C.
`Nc1ccc(S(=O)(=O)c2cc(-c3cc(C(F)(F)F)cc(C(F)(F)F)c3)nc(N3CCCC3)c2)cc1` gave a melting point of 184 to 186 °C.
Compound `N#Cc1cnc2cc(Cl)c([N+](=O)[O-])cc2c1Nc1ccc(Oc2ccccc2)cc1` has a melting point of 220 to 222 °C.
Compound `O=C1NCN(c2ccccc2)C12CCN(CC(O)COc1ccc(F)cc1)CC2` (centres undefined) has a melting point of 152 to 154 °C.
`Cn1c(=O)c(N=C=O)c(-c2ccccc2Cl)c2cc(Cl)ccc21` gave a melting point of 204 to 206 °C.
`C=CS(=O)(=O)Nc1cccc(Nc2nc(N[C@H](C)C(C)(C)C)c3nc[nH]c3n2)c1` gave a melting point of 133 to 136 °C.
In the case of `Cc1ccc(S(=O)(=O)NC(=O)CC(=O)N2CCCC2C(=O)N2CCN(C3(N4CCCC4)N=CC=C(N4CCCC4)N3)CC2)cc1` (single isomer, unassigned; (-)), the melting point is reported as 170 °C.
`CCCc1nc2c(N)nc3cc(-c4cccc(CN)c4)ccc3c2s1` gave a melting point of 168 to 171 °C.
For `CCOc1c(C)cnc(CO)c1C`, the melting point was 58 to 59 °C.
Work on `Cc1cc(N)c(C(=O)Cc2nnnn2C)cc1C` yielded a melting point of 162 to 165 °C.
For `CCOC(=O)c1[nH]c(CC)c(CC)c1C`, the melting point was 71 to 73 °C.
`O=C(CNC(=O)c1cc([N+](=O)[O-])c(F)cc1Cl)OCc1ccccc1` showed a melting point of 108 to 110 °C.
With `CCN(CC)C(=O)c1cc(-c2ccccc2)c2ccccc2c1` the melting point was 123 to 124 °C.
Compound `C[Si](C)(CCl)c1ccc(-c2ccccc2)cc1` has a melting point of 30 to 40 °C.
In the case of `C[C@H](NN1C(=O)c2ccccc2S1(=O)=O)C(=O)N[C@@H](Cc1ccccc1)C(=O)O`, the melting point is reported as 190 to 193 °C.

— a melting point compilation (Tetko et al.; mined from patent text by program, amines drawn as free bases though some values may be those of a salt)
